Measured values as given in patent US20030044413A1, “Methods of limiting apoptosis of cells” (Regents of the University of Minnesota, priority 1998, published 2003).
Where “and” joins values, the source holds several entries; their conditions need not be identical. Equal entries are not always repeated. Entries after “also recorded” stand apart in the source; their conditions may differ.

Tests used:
[1] = system: astrocytes; assay: Unconjugated bilirubin-induced apoptosis in astrocytes; assay type: cell-based, rat; details: for apoptosis, increase over control values: 4 hours
[2] = system: primary rat hepatocytes; assay: Ethanol-induced apoptosis, Hoechst staining, primary rat hepatocytes; assay type: cell-based; details: 0.5% ethanol
Protocol: (§1) Incubation of cells with ethanol, TGF-β1, anti-Fas antibody or okadaic acid. Freshly isolated rat hepatocytes were cultured for 3 h as described above and then incubated with William's E medium supplemented with either 0.5% ethanol, 50 μM UDCA, ethanol plus UDCA, or no addition (control) for 2 h and 4 h. HuH-7 cells were incubated with Dulbecco's medium supplemented with either 1 nM TGF-β1 (R & D Systems, Minneapolis, Minn.), 100 μM UDCA, TGF-β1+UDCA, or no addition (control) for 24 h, 48 h, and 72 h. Hep G2 cells were incubated with Dulbecco's medium supplemented with either 0.5 μg/ml of anti-Fas antibody CH-11 (Upstate Biotechnology, Inc., Lake Placid, N.Y.), 100 μM UDCA, CH-11+UDCA, or no addition for 48 h. Both HuH-7 cells and human osteogenic sarcoma Saos-2 cells were cultured in Dulbecco's medium supplemented with either 50 nM okadaic acid (Boehringer Mannheim Biochemicals, Inc, Indianapolis, Ind.), 100 μM UDCA, okadaic acid+UDCA, or no addition for 48 h. In all the combination groups, cells were pretreated with UDCA alone for 60 min prior to addition of ethanol, TGF-β1, anti-Fas antibody or okadaic acid.
(§2) Morphological evaluation of apoptosis. Morphology was performed as described previously (Oberhammer et al., Proc. Natl. Acad. Sci. USA 89, 5408-5412 (1992)). Briefly, after fixation (with 4% formaldehyde in PBS, pH 7.4, for 10 min at room temperature), the cells were incubated with Hoechst dye 33258 (Sigma Chemical Co.) at 5 μg/ml in PBS for 5 min, washed with PBS and mounted with PBS:glycerol (3:1, v/v). Fluorescence was visualized with a Zeiss standard fluorescence microscope (Carl Zeiss, Inc., Thornwood, N.Y.). Photographs were taken with Kodak Ektar-1000 film (Eastman Kodak Co.). Stained nuclei were scored by blind analysis and categorized according to the condensation and staining characteristics of chromatin. Normal nuclei were identified as noncondensed chromatin dispersed over the entire nucleus. Apoptotic nuclei were identified by condensed chromatin, contiguous to the nuclear membrane, as well as nuclear fragmentation of condensed chromatin. Three fields per dish of approximately 500 nuclei were counted; mean values are expressed as the percent of apoptotic nuclei.

[3] = system: rat primary hepatocytes; assay: FACS analysis of ΔΨm and ROS, rat primary hepatocytes; assay type: cell-based; details: 1% ETOH, 4 h, hepatocytes
Protocol: A ΔΨm and ROS measurement. ΔΨm and ROS production were measured by FACScan (Becton Dickinson) analysis. Freshly isolated rat hepatocytes were cultured for 3 h as described above and then incubated with William's E medium supplemented with either 100 μM DCA, 100 μM UDCA, equal molar amounts of both, or no bile acid (control), for 6 h. Rat hepatocytes were also cultured with either 1% ethanol, 100 μM UDCA, ethanol+UDCA, or no addition (control) for 4 h. HuH-7 cells, Hep G2 cells, and human osteogenic sarcoma Saos-2 cells were incubated with TGF-β1, anti-Fas antibody or okadaic acid, respectively, for 48 h under the same conditions as outlined above. For combination studies, cells were pretreated with UDCA or hyodeoxycholic acid for 60 min prior to addition of DCA, ethanol, TGF-β1, anti-Fas antibody or okadaic acid. Aliquots of 1.0×10^6 cells were incubated for 15 min at 37° C. with 50 nM 3,3′-dihexyloxacarbocyanine iodide [DiOC6(3)], 2 μM dihydroethidium (HE), or 5 μM 2′,7′-dichlorofluorescin diacetate (H2DCFDA; Molecular Probes, Inc. Eugene, Oreg.) and analyzed by cytofluorometry (Cathcart et al., Anal. Biochem., 134, 111-116 (1983); Zamzami et al., J. Exp. Med., 181, 1661-1672 (1 995); Carter et al., J. Leukocyte Biol., 55, 253-258 (1994)).
Rat primary hepatocytes were incubated with 100 μM DCA and 1% ETOH for 6 h and 4 h, respectively; HuH-7 cells with 1 nM TGF-β1 for 48 h; Hep G2 cells with 0.5 μg/ml anti-Fas antibody (CH-11) for 48 h, and Saos-2 cells with 50 nM okadaic acid (OA) for 48 h. In each combination group, cells were pretreated with 100 μM UDCA alone for 60 min prior to addition of the inducer. Aliquots of 1.0×10^6 cells were incubated for 15 min at 37° C. with 5 μM 2′,7′-dichlorofluorescin diacetate (H2DCFDA) and analyzed by cytofluorometry.

[4] = system: isolated rat liver mitochondria; assay: MPT spectrophotometric assay (mitochondrial swelling); details: for effect on DCA-induced MPT / mitochondrial swelling: preincubation (500 μM bile acid or cyclosporine A) before DCA
Protocol: Isolation of mitochondria and MPT assays. Low calcium liver mitochondria were isolated from male 200-250 g Sprague-Dawley rats by density gradient centrifugation as previously published (Botla et al., J. Pharmacol. Exp. Ther., 272, 930-938 (1995); Walajtys-Rhode et al., J. Biol. Chem., 267, 370-379 (1992); and Sokol et al., Gastroenterology, 99, 1061-1071 (1990)). The mitochondrial fraction was resuspended in 30 ml of wash buffer containing 0.1 M KCl, 5 mM 3-(N-morpholino)-propane sulfonic acid (MOPS), and 1 mM EGTA, at pH 7.4 and centrifuged at 7,000×g for 10 min at 4° C. A final wash was carried out in chelex-100-treated buffer (Bio-Rad Laboratories, Hercules, Calif.) containing no EGTA. The resulting pellet was suspended in 4 ml of chelex--100-treated buffer containing 125 mM sucrose, 5 mM HEPES, 50 mM KCl and 2 mM KH2PO4. The usual yield of mitochondria was approximately 25 mg of protein per gram of liver tissue. Mitochondrial purity was established as previously described (Botla et al., J. Pharmacol. Exp. Ther., 272, 930-938 (1995)). Protein concentrations were determined using the Bio-Rad protein assay kit as specified by the manufacturer.
MPT was measured spectrophotometrically as described previously (Botla et al., J. Pharmacol. Exp. Ther., 272, 930-938 (1995); Pastorino et al., J. Biol. Chem., 268, 13791-13798 (1993)), during 10 min incubations at 25° C. using mitochondria (1 mg of protein/ml) suspended in 3 ml of a chelex-100-treated buffer containing 0.1 M NaCl, 10 mM MOPS, pH 7.4. Swelling was monitored at 540 nm in a Beckman DU 64 spectrophotometer. Basal values of mitochondria absorbance were measured for 5 min, and the optical density was monitored another 5 min after addition of 200 μM DCA or 80 μM phenylarsine oxide (PhAsO; Sigma Chemical Co.). For coincubation studies, mitochondria were preincubated with 500 μM UDCA or hyodeoxycholic acid for 5 min at 25° C. prior to the assay.
Spectrophotometric and Fluorimetric Assays of MPT. The MPT was assessed using a spectrophotometric assay measuring high amplitude rapid changes in mitochondrial volume, and a fluorimetric assay quantitating the release of calcein from calcein-loaded mitochondria. The MPT was measured spectrophotometrically as previously described (Pastorino, J. Biol. Chem., 268, 13791-13798 (1993); Botla et al., J. Pharmacol. Exp. Ther., 272, 930-938 (1995)). Briefly, mitochondria (3 mg protein) were incubated in 3 ml of chelex-100-treated respiration buffer (0.1 M NaCl, 10 mM MOPS, pH 7.4) for 10 min at 25° C. and monitored at 540 nm in a Beckman DU 64 spectrophotometer. Basal values of mitochondrial absorbance were measured for 5 min, and the optical density was monitored for an additional 5 min after addition of increasing concentrations of DCA (50-200 μM) or 80 μM phenylarsine oxide (PhAsO; Sigma Chemical Co., St. Louis, Mo.). For the coincubation studies, mitochondria were preincubated with UDCA (100-500 μM), or 500 μM hyodeoxycholic acid (HDCA; Sigma Chemical Co.) for 5 min at 25° C. prior to initiation of the assay.
Measurement of MPT and determination of cytochrome c content in supernatants and mitochondrial pellets after MPT. The MPT was assessed using a spectrophotometric assay measuring high amplitude rapid changes in mitochondria volume. Mitochondria (1 mg protein) were incubated in 1 ml of chelex-100-treated respiration buffer (0.1 M NaCl, 10 mM MOPS, pH 7.4) for 10 min at 25° C. and swelling was monitored at 540 nm in a Beckman DU 64 spectrophotometer. Malate and glutamate (1 mM) were added to initiate respiration, and 3 min later rotenone (5 μM), an inhibitor of complex I of the respiratory chain, was also added to the supension. Basal values of mitochondria absorbance were measured for 5 min, and the optical density was monitored for an additional 5 min after addition 200 μM DCA or 80 μM phenylarsine oxide (PhAsO; Sigma Chemical Co.). […]

[5] = system: HuH-7 cells; assay: TGF-β1-induced apoptosis, Hoechst staining, HuH-7 cells; assay type: cell-based, human; details: 1 nM TGF-β1, 100 μM bile acid, 72 h
Protocol: as §1
HuH-7 cells were treated with 1 nM TGF-β1, 100 μM of either hyodeoxycholic acid, taurocholic acid, tauroursodeoxycholic acid (Sigma Chemical Co.) or glycoursodeoxycholic acid (Steraloids Inc., Wilton, N.H.), or a combination of TGF-β1 plus the individual bile acids for 72 h. HeLa and Cos-7 cells were incubated with 50 nM okadaic acid, 100 μM of either tauroursodeoxycholic acid or glycoursodeoxycholic acid, or a combination of okadaic acid plus the individual bile acids for 24 h. In the combination groups, cells were pretreated with the bile acid alone for 60 min prior to incuation with TGF-β1 or okadaic acid. In all studies, the medium was gently removed at the indicated times and scored for nonviable cells. The attached cells were fixed for morphologic evaluation of apoptosis.
as §2, with “Morphology was performed as described previously (Oberhammer et al., Proc. Natl. Acad. Sci. USA 89, 5408-5412 (1992)). Briefly, after fixation (with 4% formaldehyde in PBS, pH 7.4, for 10 min at room temperature), the cells were incubated with Hoechst dye 33258 (Sigma Chemical Co.) at 5 μg/ml in PBS for 5 min, washed with PBS and mounted with PBS:glycerol (3:1, v/v).” left out

[6] = system: cytochrome c; assay: Cytochrome c release from isolated mitochondria after MPT; parameters: species or system rat; details: added to isolated mitochondria before DCA
Protocol: Mitochondria isolation. […] In short, animals were sacrificed by exsanguination under ether anesthesia and the livers removed and rinsed in normal saline. Approximately 10 g of minced liver was homogenized at a speed of 800 rpm using 6 complete up and down strokes with a speed controlled mechanical skill drill and a teflon pestle (Tri-R Model K41, Tri-R Instruments, Rockville Center, N.Y.) in an ice-cold solution of 70 mM sucrose, 220 mM mannitol, 1 mM EGTA and 10 mM HEPES, pH 7.4 as a 10% (wt/vol) homogenate. The homogenate was centrifuged at 600×g for 10 min at 4° C. in an SS-34 rotor in a Sorvall RC5C centrifuge (Sorvall Instruments, Newtown, Conn.), and the postnuclear supernatant was centrifuged at 7,000×g for 10 min at 4° C. […] The pellet was resuspended in 2 mL of homogenate buffer, and 1 mL of the resuspended pellet was carefully layered onto a 35-mL self-generating gradient containing 0.25 M sucrose, 1 mM EGTA and percoll (Pharmacia Fine Chemicals, Piscataway, N.J.) (75:25, vol/vol). The mitochondria were purified by centrifugation at 43,000×g for 30 min at 4° C. using a Beckman Ti60 rotor and a Beckman ultracentrifuge model L8-55 (Beckman Instruments, Inc., Schaumburg, Ill.). The clear supernatant solution removed and the lower turbid layer was resuspended in 30 mL of wash buffer containing 0.1 M KCl, 5 mM 3-(N-morpholino)-propane sulfonic acid (MOPS), and 1 mM EGTA, at pH 7.4 and centrifuged at 7,000×g for 10 min at 4° C. The resulting mitochondria pellet was washed in wash buffer two times. A final wash was carried out in chelex-100-treated buffer (Bio-Rad Laboratories, Richmond, Va.; 200-400 mesh, potassium form) without EGTA. The pellet was suspended in 4 mL of chelex-100-treated resuspension buffer containing 125 mM sucrose, 50 mM KCl, 5 mM HEPES, and 2 mM KH2PO4. The usual yield of mitochondria was approximately 25 mg of protein per gram of liver tissue. Mitochondria were used for experiments within 3 h of isolation. Aliquots were removed for examining the purity of the mitochondria preparation.
Measurement of MPT and determination of cytochrome c content in supernatants and mitochondrial pellets after MPT. The MPT was assessed using a spectrophotometric assay measuring high amplitude rapid changes in mitochondria volume. Mitochondria (1 mg protein) were incubated in 1 ml of chelex-100-treated respiration buffer (0.1 M NaCl, 10 mM MOPS, pH 7.4) for 10 min at 25° C. and swelling was monitored at 540 nm in a Beckman DU 64 spectrophotometer. […] Basal values of mitochondria absorbance were measured for 5 min, and the optical density was monitored for an additional 5 min after addition 200 μM DCA or 80 μM phenylarsine oxide (PhAsO; Sigma Chemical Co.). […]

[7] = system: stroke injury; assay: Stroke injury in a rat model; assay type: in vivo; details: preliminary results

In the case of `C=CC1=C(C)/C(=C/c2[nH]c(Cc3[nH]c(/C=C4\NC(=O)C(C)=C4C=C)c(C)c3CCC(=O)O)c(CCC(=O)O)c2C)NC1=O` [UCB, unconjugated bilirubin], the “apoptosis, increase over control values” ([1]; 17 μM UCB) is reported as “about 6 fold”, the “apoptosis, increase over control values” ([1]; 85.5 μM UCB) is reported as “about 11 fold” and the “percentage of apoptotic cells” value ([1]; 85.5 μM UCB, 22 hours) is reported as “about 48%”. The cell viability ([1]; UCB treatment) was “concentration and time dependent decrease in cell viability”.

With `CCO` [ethanol] the “increase in apoptosis over control values” ([2]; 2 h) was 10 fold, the increase in apoptosis ([2]; time not stated (summary)) was 12 fold and the “Peroxides Production (%) Inducer” value [3] was 17.9 ± 5.4%. For the same compound, the “mitochondrial swelling with the substance alone” value ([4]; substance alone added to isolated mitochondria) was “did not induce mitochondria swelling”.

In the case of `C[C@H](CCC(=O)NCC(=O)O)[C@H]1CC[C@H]2[C@@H]3[C@@H](O)C[C@@H]4C[C@H](O)CC[C@]4(C)[C@H]3CC[C@]12C` [glycoursodeoxycholic acid], the “decrease of TGF-β1 apoptosis” value [5] is reported as 37.5±5.1%, the “effect on deoxycholic acid-induced cytochrome c release” value [6] is reported as “Inhibition of deoxycholic acid-induced MPT and cytochrome c release were also observed” and the “effect on DCA-induced MPT / mitochondrial swelling” value [4] is reported as “Inhibition of deoxycholic acid-induced MPT”.

With `C[C@H](CCC(=O)NCCS(=O)(=O)O)[C@H]1CC[C@H]2[C@@H]3[C@H](O)C[C@@H]4C[C@H](O)CC[C@]4(C)[C@H]3C[C@H](O)[C@]12C` [taurocholic acid] the “inhibition of TGF-β1-induced apoptosis” value [5] was “did not; also recorded: neither hyodeoxycholic acid nor taurocholic acid showed inhibition”.

For `C[C@H](CCC(=O)NCCS(=O)(=O)O)[C@H]1CC[C@H]2[C@@H]3[C@@H](O)C[C@@H]4C[C@H](O)CC[C@]4(C)[C@H]3CC[C@]12C` [tauroursodeoxycholic acid], the “mitochondria viability following a stroke injury” value [7] was “improvement in mitochondria viability”, the “decrease of the area of stroke damage” value ([7]; pretreatment, compared to control animals) was “up to 50%” and the “decrease of TGF-β1 apoptosis” value [5] was 45.8±7.9%. The “effect on deoxycholic acid-induced cytochrome c release” value [6] was “Inhibition of deoxycholic acid-induced MPT and cytochrome c release were also observed” and the “effect on DCA-induced MPT / mitochondrial swelling” value [4] was “Inhibition of deoxycholic acid-induced MPT”.

cyclosporine A was tested, and the “inhibition of DCA-induced MPT (mitochondrial swelling)” value ([4]; 200 μM DCA, pretreatment 500 μM UDCA or 5 μM cyclosporine A) was > 45% and 45.8±5.4% and the “effect on DCA-induced MPT / mitochondrial swelling” value [4] was “reduced deoxycholic acid-induced mitochondria swelling”.
